Laboratory results reported in patent publication US4115569A, “Cyclic diamine derivatives” (Hoechst Aktiengesellschaft, priority 1971, dated 1978).
≈ marks a conversion by molar mass, not a printed value. Where a name gives a salt, the structure may show the parent alone.

Tests used:
[1] = test system: filaria; settings: in vivo; cited from earlier work
[2] = test system: dictyocaulus; settings: in vivo; cited from earlier work
[3] = test system: isolated guinea pig intestine (BaCl2); assay: spasmolytic action against barium chloride on the isolated guinea pig intestine; parameters: key to Spasmolytic action against BaCl2 (ED50): (--): reduction of 10%; --: reduction of 25%; ----: reduction of 50%; .phi.: substantially no action; settings: barium chloride 10^-4 mg/ml; for IC50: Cavia porcellus, read-out: Spasmolytic action against BaCl2 (ED50)
Description: (§1) The compounds according to the invention were also tested for their influence on coronary through-flow on the heart mechanogram and for their spasmolytic action.
(§2) The latter test was performed on the isolated guinea pig intestine by the method of R. Magnus ("Pflugers Archiv" Vol 102 (1904) p 123).

[4] = test system: heart; assay: influence on the heart mechanogram (heart muscle force); parameters: key to Action on the heart mechanogram: (--): reduction of 10%; --: reduction of 25%; ----: reduction of 50%; .phi.: substantially no action
Description: The compounds according to the invention were also tested for their influence on coronary through-flow on the heart mechanogram and for their spasmolytic action. […]

[5] = acute toxicity (LD50); settings: in vivo
[6] = test system: isolated guinea pig intestine (histamine); assay: spasmolytic action against histamine on the isolated guinea pig intestine; parameters: key to Spasmolytic action against Histamine (ED50): (--): reduction of 10%; --: reduction of 25%; ----: reduction of 50%; .phi.: substantially no action; settings: histamine 10^-7 g/ml; for IC50: Cavia porcellus, read-out: Spasmolytic action against Histamine (ED50)
Description: as §1, §2

[7] = test system: reserpine ptosis; assay: reserpine antagonism (reserpine ptosis test); format: in vivo; settings: for change in vivo at 25 mg/kg: po, 1 hr after 25 mg/kg of substance orally, read-out: % Influence on reserpine ptosis
Description: The therapeutic activity of compounds according to the invention was determined by measurement of reserpine antagonism (B. Rubin et al., "J. Pharmacol. exp. Therap." Vol 120 (1957) p 125) and by the effect on the fighting behaviour of fighting mice in the test arrangement of G. Y. Yen et al., (Arch. Int. Pharmacodyn, Vol 123 (1959) p 179).

[8] = test system: isolated guinea pig intestine (acetylcholine); assay: spasmolytic action against acetylcholine on the isolated guinea pig intestine; parameters: key to Spasmolytic action against Acetylcholine (ED50): (--): reduction of 10%; --: reduction of 25%; ----: reduction of 50%; .phi.: substantially no action; settings: acetylcholine 10^-7 g/ml; for IC50: Cavia porcellus, read-out: Spasmolytic action against Acetylcholine (ED50)
Description: as §1, §2

[9] = test system: coronary vessels; assay: influence on coronary through-flow
Description: as §1

CCN(CC)C(=O)N1CCN(C)CC1 [4-methylpiperazinocarboxylic acid-(1)-diethylamide citrate]
use against filaria infections [1]: successfully used against filaria | use against dictyocaulus infections [2]: successfully used

O=C(c1cc2ccccc2o1)N1CCN(Cc2ccccc2)CC1 [Compound 1, N-Benzyl-coumarillic acid piperazide]
IC50 [3]: 1 to 10 µg/mL (≈ 3.12 to 31.2 µM) | Action on the heart mechanogram ([4]; dose 10 (82 g)): .phi. | Action on the heart mechanogram ([4]; dose 30 (82 g)): .phi. | Action on the heart mechanogram ([4]; dose 100 (82 g)): -- (reduction of 25%) | reduction of the heart muscle force ([4]; dose of 100 μg): 25% | LD50 ([5]; ip, i.p. mouse): 320 mg/kg | LD50 ([5]; po, orally, mouse): 2050 mg/kg | IC50 [6]: 1 to 10 µg/mL (≈ 3.12 to 31.2 µM) | change in vivo at 25 mg/kg [7]: -50% | IC50 [8]: 10 µg/mL (≈ 31.2 µM) | action on coronary flow / coronary vessels (in words) [9]: considerable increase in the coronary through-flow without subsequent contraction of the vessel | Coronary through-flow: Duration (initial or only value) ([9]; dose 10 (82 g)): 0.5 min | Coronary through-flow: Change (initial or only value) ([9]; dose 30 (82 g)): +38% | Coronary through-flow: Duration (initial or only value) ([9]; dose 30 (82 g)): 1.0 min | Coronary through-flow: Change (initial or only value) ([9]; dose 100 (82 g)): +120% | Coronary through-flow: Duration (initial or only value) ([9]; dose 100 (82 g)): 26.0 min

O=C(c1cc2ccccc2o1)N1CCN(Cc2ccc(Cl)cc2)CC1 [Compound 2, N-(4-chloro)-benzyl-coumarillic acid piperazide]
IC50 [3]: 1 to 10 µg/mL (≈ 2.82 to 28.2 µM) | IC50 [6]: 1 to 10 µg/mL (≈ 2.82 to 28.2 µM) | Spasmolytic action against Acetylcholine (ED50) [8]: >

O=C(c1cc2ccccc2o1)N1CCN(Cc2ccc(Cl)c(Cl)c2)CC1 [Compound 3, N-(3,4-dichlorobenzyl)-coumarillic acid piperazide]
LD50 ([5]; ip, i.p. mouse): 1000 to 1500 mg/kg | change in vivo at 25 mg/kg [7]: -22%

O=C(c1cc2ccccc2o1)N1CCN(Cc2ccc(F)cc2)CC1 [Compound 5, N-(4-fluorobenzyl)-coumarillic acid piperazide]
LD50 ([5]; ip, i.p. mouse): 100 to 250 mg/kg | change in vivo at 25 mg/kg [7]: -50%

O=C(c1cc2ccccc2o1)N1CCN(Cc2cccs2)CC1 [Compound 16, N-thenyl-coumarillic acid piperazide]
Spasmolytic action against BaCl2 (ED50) [3]: .phi. | LD50 ([5]; ip, i.p. mouse): 100 to 250 mg/kg | LD50 ([5]; po, orally, mouse): 1980 mg/kg | Spasmolytic action against Histamine (ED50) [6]: .phi. | change in vivo at 25 mg/kg [7]: -54% | Spasmolytic action against Acetylcholine (ED50) [8]: .phi.

O=C(c1cc2ccccc2o1)N1CCCN(Cc2ccccc2)CC1 [Compound 17, N-benzyl-coumarillic acid homopiperazide]
Action on the heart mechanogram ([4]; dose 10 (82 g)): .phi. | Action on the heart mechanogram ([4]; dose 30 (82 g)): .phi. | Coronary through-flow: Change (initial or only value) ([9]; dose 10 (82 g)): +8% | Coronary through-flow: Duration (initial or only value) ([9]; dose 10 (82 g)): 1.0 min | Coronary through-flow: Change (initial or only value) ([9]; dose 30 (82 g)): +25% | Coronary through-flow: Duration (initial or only value) ([9]; dose 30 (82 g)): 1.0 min

O=C(C1Cc2ccccc2O1)N1CCN(Cc2ccccc2)CC1 (stereo not shown) [Compound 20, N-benzyl-2,3-dihydrocoumarillic acid piperazide]
IC50 [3]: 0.3 µg/mL (≈ 0.93 µM) | LD50 ([5]; ip, i.p. mouse): 100 to 150 mg/kg | IC50 [6]: 1 µg/mL (≈ 3.1 µM) | change in vivo at 25 mg/kg [7]: -32% | IC50 [8]: 3 µg/mL (≈ 9.3 µM) | Coronary through-flow: Change (initial or only value) ([9]; dose 10 (82 g)): +25% | Coronary through-flow: Change (initial or only value) ([9]; dose 50 (82 g)): +50%

O=C(c1ccco1)N1CCN(Cc2ccccc2)CC1 [Compound 21, N-benzyl-furan-2-carboxylic acid piperazide]
Spasmolytic action against BaCl2 (ED50) [3]: .phi. | IC50 [6]: 0.1 µg/mL (≈ 0.37 µM) | Spasmolytic action against Acetylcholine (ED50) [8]: .phi.

O=C(c1ccco1)N1CCN(Cc2ccc(Cl)c(Cl)c2)CC1 [Compound 22, N-3,4-dichlorobenzyl-furan-2-carboxylic acid piperazide]
LD50 ([5]; ip, i.p. mouse): 250 to 500 mg/kg | change in vivo at 25 mg/kg [7]: -23%

CC1=C(C(=O)N2CCN(Cc3ccccc3)CC2)CCCO1 [Compound 24, N-benzyl-[6-methyl-2,3-dihydropyran-5-carboxylic acid]piperazide]
Spasmolytic action against BaCl2 (ED50) [3]: .phi. | Spasmolytic action against Histamine (ED50) [6]: .phi. | Spasmolytic action against Acetylcholine (ED50) [8]: .phi.

CC1=C(C(=O)N2CCN(Cc3ccc(Cl)c(Cl)c3)CC2)CCCO1 [Compound 25, N-3,4-dichlorobenzyl-[6-methyl-2,3-dihydropyran-5-carboxylic acid]-piperazide]
IC50 [3]: > 10 µg/mL | Action on the heart mechanogram ([4]; dose 6 (82 g)): (--) (reduction of 10%) | reduction of the heart muscle force ([4]; dose of 30 μg): less than 25% | IC50 [6]: 1 to 10 µg/mL (≈ 2.71 to 27.1 µM) | IC50 [8]: 1 to 10 µg/mL (≈ 2.71 to 27.1 µM) | Coronary through-flow: Duration (initial or only value) ([9]; dose 6 (82 g)): 8.0 min | Coronary through-flow: Change (initial or only value) ([9]; dose 30 (82 g)): +31% | Coronary through-flow: Duration (initial or only value) ([9]; dose 30 (82 g)): 27.0 min

CC1=C(C(=O)N2CCN(Cc3c(C)cc(C)cc3C)CC2)CCCO1 [Compound 26, N-(2,4,6-Trimethylbenzyl)-N-2-methyl-5,6-dihydro-pyran-3-carbonyl-piperazine-hydrochloride]
Coronary through-flow: Change (initial or only value) ([9]; dose 30 (82 g)): +13% | Coronary through-flow: Duration (initial or only value) ([9]; dose 30 (82 g)): 5 min | Coronary through-flow: Change (initial or only value) ([9]; dose 100 (82 g)): +21% | Coronary through-flow: Duration (initial or only value) ([9]; dose 100 (82 g)): > 12 min

CC1=C(C(=O)N2CCN(Cc3cccs3)CC2)CCCO1 [Compound 28]
Spasmolytic action against BaCl2 (ED50) [3]: .phi. | Spasmolytic action against Histamine (ED50) [6]: .phi. | Spasmolytic action against Acetylcholine (ED50) [8]: .phi.

CC1OCCCC1C(=O)N1CCN(Cc2ccccc2)CC1 (stereo not shown) [Compound 29, N-benzyl-[6-methyl-tetrahydropyran-5-carboxylic acid]-piperazide]
IC50 [3]: > 10 µg/mL | IC50 [6]: > 10 µg/mL | IC50 [8]: > 10 µg/mL

O=C(c1cc2ccccc2[nH]1)N1CCN(Cc2ccccc2)CC1 [Compound 30, N-Benzyl-indole-2-carboxylic acid piperazide]
Coronary through-flow: Change (initial or only value) ([9]; dose 10 (82 g)): +90% | Coronary through-flow: Duration (initial or only value) ([9]; dose 10 (82 g)): 12 min

O=C(c1cccs1)N1CCN(Cc2cccs2)CC1 [Compound 42]
LD50 ([5]; ip, i.p. mouse): 100 to 250 mg/kg | change in vivo at 25 mg/kg [7]: -49%

CN(C)CCCN1c2ccccc2CCc2ccccc21 [Imipramine, 5-(3'-dimethylaminopropyl)-10-11-dihydro-5-H-dibenz-[b,f]-azepine hydrochloride, reference compound]
IC50 [3]: 0.1 to 1 µg/mL | Action on the heart mechanogram ([4]; dose 10 (82 g)): -- (reduction of 25%) | Action on the heart mechanogram ([4]; dose 20 (82 g)): -- (reduction of 25%) | Action on the heart mechanogram ([4]; dose 30 (82 g)): ---- (reduction of 50%) | reduction of the heart muscle force ([4]; dose of 10 μg): 25% | reduction of the heart muscle force ([4]; dose of 20 μg): 25% | reduction of the heart muscle force ([4]; dose of 30 μg): 50% | IC50 [6]: 0.001 µg/mL | activity in reserpine test (in words) ([7]; in vivo): high activity | change in vivo at 25 mg/kg [7]: -76% | IC50 [8]: 0.01 to 0.1 µg/mL | action on coronary flow / coronary vessels (in words) [9]: initially a brief rise in coronary flow but this changes into a long contraction, and thus damages the heart | Coronary through-flow: Change (initial or only value) ([9]; dose 10 (82 g)): +19% | Coronary through-flow: Change (second value, subsequent contraction) ([9]; dose 10 (82 g)): -18% | Coronary through-flow: Duration (initial or only value) ([9]; dose 10 (82 g)): 0.5 min | Coronary through-flow: Duration (second value, subsequent contraction) ([9]; dose 10 (82 g)): 21 min | Coronary through-flow: Change (initial or only value) ([9]; dose 20 (82 g)): +28% | Coronary through-flow: Change (second value, subsequent contraction) ([9]; dose 20 (82 g)): -29% | Coronary through-flow: Duration (initial or only value) ([9]; dose 20 (82 g)): 0.6 min | Coronary through-flow: Duration (second value, subsequent contraction) ([9]; dose 20 (82 g)): 26 min | Coronary through-flow: Change (initial or only value) ([9]; dose 30 (82 g)): +84% | Coronary through-flow: Change (second value, subsequent contraction) ([9]; dose 30 (82 g)): -22% | Coronary through-flow: Duration (second value, subsequent contraction) ([9]; dose 30 (82 g)): > 10 min
